In brackets after ≈: the same amount, converted by molar mass. No end group written: not given here.
Columns and labels:
[1] = Circular dichroism (CD) spectral analysis of peptide conformation, % helicity; format: physicochemical; details: room temperature
Procedure: According to this example, circular dichroism (CD) experiments were performed to determine the conformation changes of VIP in phospholipid micelles, pH and temperature changes, and in aqueous solutions. CD spectra were recorded on a JASCO J-700 spectropolarimeter using a fused quartz cell of 1 cm pathlength. Spectra in 0.15 N saline (pH 6.8) and 5 mM Hepes buffer (pH 7.4) were measured at a peptide concentration of 4 μM and at a lipid concentration of 1 mM. The effects of CaM, pH (6.8 or 7.4) and temperature (25° C. or 37° C.) on VIP conformation were also studied. The conformation of VIP fragments was likewise studied. All measurements were carried out at room temperature (˜25° C.) unless otherwise noted. A bandwidth of 1.0 nm and a step resolution of 0.5 nm were used to collect an average of 9 accumulations/sample at the […] (200-260 nm wavelength). The peptide spectra shown have the background buffer scans, and empty vesicle scans subtracted and were smoothed using the noise reduction function. The temperature during spectral analysis was maintained by using a circulating water bath attached to a jacket surrounding the fused quartz CD cell. The percent helical characterization of VIP was determined by a method of Haghjoo et al., Peptide Research 9 (6):327-331 (1996): % helicity=[−(θ208+4000)/29 000]*100 and are reported in table 1.
According to the example, CD was used to determine the conformation of VIP in saline, Hepes buffer and phospholipid micelles at room temperature and at 37° C. The CD spectra analysis was performed after 13 μg of human VIP incubated with 1 ml PEG-DSPE (1 μmol) micelles for 30 min at room temperature as determined by preliminary studies. A bandwidth of 1.0 nm and a step resolution of 0.5 nm were used to collect an average of 9 accumulations/sample at near UV range (200-260 nm). The temperature was maintained during spectral analysis by a circulating water bath attached to a jacket surrounding the fused quartz CD cell. The evaluation of VIP molecule conformation in SSM by using circular dichroism was successful because the distortion caused by spherical particles was eliminate due to the small size and univesicular structure of the SSM. […] The phospholipid micelles were ideal in our study of VIP conformation since it provided a hydrophobic core similar to the phospholipid bilayer of the SSL. Moreover, both the negative charge, and the hydrophilic layer provided by the PEG mimic the conditions of our SSL and make it possible to infer the VIP conformational results.
According to this example, the method of example 4 was repeated to determine the conformation of VIP in saline and phospholipid micelles plus calmodulin (CaM). CD spectra measurements were performed after 13 μg/ml of VIP was incubated with 1.0 μmol/ml of phospholipid micelles for 30 min followed by 10^−10 M CaM incubated with VIP in phospholipid micelles for 2 h at 4° C. (conjugation paper). A bandwidth of 1.0 nm and a step resolution of 0.5 nm were used to collect the average of 9 accumulations/sample at near UV range (200-260 nm).
According to this example the method of example 4 was repeated to determine the conformation of VIP fragments in saline and phospholipid micelles. CD spectra measurements were performed after incubation of VIP fragments with phospholipid micelles, at a molar concentration equivalent to VIP (i.e. 9 μg/ml for VIP10-28 fragment and 6 μg/ml for VIP1-12 fragment), for 30 min. A bandwidth of 1.0 nm and a step resolution of 0.5 nm were used to collect the average of 9 accumulations/sample at near UV range (200-260 nm). Specifically, CD spectra of human VIP fragment (1-12) and (10-28) in the presence of phospholipid micelles are shown in FIG. 5. […] These effects correlate well with the % helicity of VIP fragments determined in saline and in the presence of phospholipids (Table 1). […]

[2] = physchem; details: for solubility: aqueous with cosolvent or surfactant or cyclodextrin
Procedure: Solubilization potential of both micelle compositions for a model drug was measured by HPLC after separation of the unincorporated drug.
Excess drug was removed by centrifugation and the supernatant was analyzed by HPLC. […] HPLC eluent was measured with adsorption at 254 nm.
According to this example, micelle compositions of the invention were further characterized. Particularly, the physiochemical properties of sterically stabilized micelles prepared with DSPE conjugated to molecular weight 2000, 3000, and 5000 PEG were analyzed. The critical micelle concentration (CMC) of phospholipids was determined at pH 7.4 and 25° C. using a water-insoluble fluorescent probe (1,6-diphenyl-1,3,5-hexatriene). Micellar size was determined by quasi-elastic light scattering.
The solvent was then removed by vacuum rotary evaporation under a stream of argon to form a dry film. This dry film was further dried under vacuum overnight to remove any traces of remaining solvent. The dried film was rehydrated with isotonic 0.01M HEPES buffer, pH 7.4. The solution was then flushed with argon, sealed and equilibrated for 12 h at room temperature. The unsolubilized excess paclitaxel was removed by centrifugation at 13,000 g for 5 min to obtain a clear dispersion.
The solubilization potentials of SSMM and SSM for paclitaxel were determined by RP-HPLC. The clear aqueous dispersion was diluted with methanol. 20 μl of each sample was injected at least three times into a μBondapak C-18 column, 3.9 mm×30 cm (Waters, Milford, Mass.) equipped with a C18 column guard. The column was eluted with acetonitrile/water (60:40) at 1.0 ml/min (Waters 600). Detection was by UV absorption measurement at 227 nm (Waters 490). Peak areas were calculated by interfacing the detector to an electronic integrator (Hewlett Packard). The drug concentration was calculated from standard curves.

[3] = tested on: second order arterioles of the hamster cheek pouch microcirculation; experiment: Hamster cheek pouch microcirculation, arteriolar diameter during suffusion; format: in vivo
Procedure: According to this example, the vasorelaxant effects of VIP in a SSM were determined according to the following method. Specifically, adult male golden Syrian hamsters were purchased from Sasco (Omaha, Nebr.). Adult male hamsters with spontaneous hypertension and their normotensive controls were purchased from the Canadian Hybrid Farms (Halls Harbour, NS, Canada). Hypertensive animals have been identified after cross-breeding of hamsters with hereditary cardiomyopathy and normal golden Syrian hamsters. These albino animals have previously been used in our laboratory (Rubinstein et al., Biochem. Biophys. Res. Commun. 183:1117-1123 (1992); Artwohl et al., FASEB J. 10:A629 (1996)). Animals were anesthetized with pentobarbital sodium (6 mg/100 g body weight, i.p.). A tracheotomy was performed to facilitate spontaneous breathing. A femoral vein was cannulated to inject supplemental anesthesia during the experiment (2-4 mg/100 g body weight/h). Body temperature was maintained constant (37-38° C.) and monitored via heating pad and a feed back controller throughout the experiment.
The bioactivity of the VIP in SSM by diffusing it in situ was determined by visualization of the microcirculation of the hamster cheek pouch. The microcirculation of the cheek pouch was visualized locally by a method previously developed in our laboratory (Suzuki et al., Life Sci. 57:1451-1457 (1995); Suzuki et al., Am. J. Physiol. 271:R393-R397 (1996); and Suzuki et al., Am. J. Physiol. 271:H282-H287 (1996)). Briefly, the left cheek pouch was spread over a small plastic baseplate, and an incision was made in the outer skin to expose the cheek pouch membrane. The connective avascular tissue layer was removed, and a plastic chamber was placed over the baseplate and secured in place by suturing the skin around the upper chamber. This forms a triple-layered complex: the baseplate, the exposed cheek pouch membrane, and the upper chamber. After these initial procedures, the hamster is transferred to a heated microscope stage. The chamber was connected to a reservoir containing warmed bicarbonate buffer (37-38° C.) that allowed continuous suffusion of the cheek pouch. The buffer was bubbled continuously with 95% N2-5% CO2 (pH 7.4). […]
The cheek pouch microcirculation was epi-illuminated with a 100-W mercury light source and viewed through a microscope (Nikon, Tokyo, Japan) at a magnification of ×40. […] The inner-wall diameter of second order arterioles ([…]), which modulated vascular resistance in the cheek pouch, (Raud, Acta Physiol. Scand. (Suppl.) 578:1-58 (1989); Suzuki et al., Life Sci. 57:1451-1457 (1995); Suzuki et al., Am. J. Physiol. 271:R393-R397 (1996)) was measured from the video display of the microscope image using a videomicrometer (VIA 100; Boeckeler Instruments, Tucson, Ariz.). […]

[4] = tested on: second order arterioles of the hamster cheek pouch microcirculation; details: Séjourné et al. 1997; cited from earlier work
[5] = tested on: anesthetized rats; experiment: Infusion in anesthetized rats, haemodynamics by radioactive microsphere technique; format: in vivo, rat; details: 50 ng/kg/min infused for 30 minutes
Procedure: According to this aspect of the invention, the effect of infusion of enthelin-1 (ET-1) alone or in a SSM formulation on mean arterial pressure (MAP), cardiac output(CO), total peripheral resistance (TPR), and regional blood circulation in anesthetized rats was examined using a radioactive microsphere technique. SSM with or without ET-1 were prepared according to the method described in Example 11 using DSPE-PEG in saline. Treatments for individual groups consisted of: (i) control, SSM at 2.7 mg/ml (n=6); (ii) ET-1 infusion at 50 ng/kg/min (n=5), and (iii) ET-1 at 50 ng/kg/min in SSM (n=8). Drugs were infused at 0.1 ml/min for 30 minutes.

Compound | Conformation from CD spectrum in the presence of phospholipid micelles (SSM) [1] | % Helicity (in the presence of) Phospholipids [1] | % Helicity (in the presence of) Saline [1] | Conformation from CD spectrum in saline [1] | also measured
NC(=O)CC[C@@H]1NC(=O)[C@H](Cc2ccccc2)NC(=O)[C@H](Cc2ccc(O)cc2)NC(=O)[C@@H](N)CSSC[C@@H](C(=O)N2CCC[C@H]2C(=O)N[C@@H](CCCN=C(N)N)C(=O)NCC(N)=O)NC(=O)[C@H](CC(N)=O)NC1=O [Vasopressin] | primarily random coil conformation | 16% | 8% | primarily random coil conformation | 
C=C(C)[C@@H]1CC[C@]2(C(=O)O)CC[C@]3(C)[C@H](CC[C@@H]4[C@@]5(C)CC[C@H](O)C(C)(C)[C@@H]5CC[C@]43C)[C@@H]12 [betulinic acid] |  |  |  |  | solubility ([2]; solubility in either SSM or SSC): 250 µg/mL (≈ 547 µM)
C=C(C)[C@@H]1CC[C@]2(C(=O)O)CC[C@]3(C)[C@H](CC[C@@H]4[C@@]5(C)CC[C@H](O)C(C)(C)[C@@H]5CC[C@]43C)[C@@H]12 [betullinic acid] |  |  |  |  | solubility in 10 mg/ml DSPE-PEG [2]: up to 200 μg/ml
CC(=O)[C@H]1CC[C@H]2[C@@H]3CCC4=CC(=O)CC[C@]4(C)[C@H]3CC[C@]12C [progesterone] |  |  |  |  | solubility ([2]; thermodynamic from solid, solubility in 10 mg/ml DSPE-PEG): ≤ 198 µg/mL; solubility ([2]; thermodynamic from solid, solubility of progesterone in DSPE-PEG micelles): 198 ± 7 µg/mL (≈ 630 µM); solubility ([2]; thermodynamic from solid, solubility of progesterone in bile salt micelles): 21 µg/mL
VIP1-12: VIP fragment 1-12 (HSDAVFTDNYTR; Vasoactive intestinal peptide; UniProt P01282 125-136, looked up, fragment) | primarily random coil structure | 0.05% | 0% | primarily random coil structure | 
VIP10-28: VIP fragment 10-28, a selective VIP receptor antagonist (YTRLRKQMAVKKYLNSILN; ends and bridges not checked; UniProt P01282 134-152, looked up, fragment) | predominantly α-helix structure | 18% | 3% | primarily random coil conformation | effect on secretin- and secretin in SSM-induced vasodilation ([3]; VIP10-28 (50 nmol) suffused 30 min before and during secretin (5 nmol)): abrogated; effects on arteriolar diameter ([3]; suffusion of VIP10-28 alone (50 nmol)): no significant effects; effect on VIP in SSL response [4]: attenuated; effect on native VIP response [4]: completely abolished
calmodulin [CaM] |  | 0% | 0% |  | 
enthelin-1 (CSCSSLMDKECVYFCHLDIIW; ends and bridges not checked; cysteine pairing not given here; UniProt P05305 53-73, looked up) [ET-1] |  |  |  |  | Renal vascular resistance [5]: 76%; increase in TPR [5]: 102%; vascular resistance in brain [5]: 62%
secretin | appreciable α-helix conformation |  |  | unordered | increase in arteriolar diameter from baseline ([3]; suffusion of 5 nmol for 7 min): 10.3±0.6%

— US20110142884A1, “Materials and Methods for Making Improved Micelle Compositions” (The Board of Trustees of the University of Illinois, priority 2002, published 2011)
